According to US11613531B2, “Inhibitors of RHO associated coiled-coil containing protein kinase” (Kadmon Corporation, LLC, priority 2017, dated 2023):
“Also recorded” adds a separate entry of the source. Like-named read-outs stand apart in the source and are kept apart here.

Columns and labels:
[1] = molecular target: Recombinant ROCK1 (amino acids 1-535) (Homo sapiens (Human), UniProt Q13464); assay: Z′-Lyte kinase assay, ROCK1; type: biochemical; settings: for inhibition at 0.5 µM: 0.5 μM compound
Procedure, shortened: (§1)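 IC50s derive from nonlinear curve fits over a 9-point, 2-fold dilution series, with single-point inhibition at 1 μM expressed relative to DMSO. Activity of truncated human ROCK1 (residues 1-535) and ROCK2 (residues 1-552) measured with the Z′-Lyte kinase format.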

[2] = test system: ppMlc (T18/S19) levels in A7R5 cells; assay: A7R5 in-cell ELISA (pMLC); type: cell-based, Rat; settings: Rattus norvegicus, A7R5, A7R5 cells; for inhibition at 1 µM: 1 μM compound; for inhibition at 1 µM / inhibition at 10 µM: read-out: pMLC % inh A7R5 @ [conc]; for inhibition at 10 µM: 10 μM compound
Procedure, shortened: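 Cellular IC50 came from a nonlinear regression fit of ppMlc (T18/S19) signal, read by colorimetric in-cell ELISA on fixed cells. Rat A7R5 aortic smooth muscle cells had been exposed for 90 min to compounds in 9-point 2-fold serial dilution, 24 h after seeding.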

[3] = molecular target: Recombinant ROCK2 (amino acids 1-552) (Homo sapiens (Human), UniProt O75116); assay: Z′-Lyte kinase assay, ROCK2; type: biochemical; settings: for inhibition at 1 µM: 1 μM compound; for inhibition at 0.5 µM: 0.5 μM compound
Procedure, shortened: as §1

[4] = test system: human ACTA2 gene promoter luciferase reporter in NIH3T3 cells; assay: NIH3T3 Acta2-promoter driven-luciferase assay; type: cell-based; settings: read-out: NIH3T3 Acta2-luc, IC50
Procedure, shortened: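 NIH3T3 cells stably carrying a human ACTA2 promoter (−1000-1 bp)-luciferase reporter, grown to confluence, treated 24 hr with compound plus TGFβ1 at 9-point serial dilution. Luciferase read after lysis; IC50 by nonlinear regression.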

[5] = test system: Detroit 562 cells; assay: Integrin αvβ6 mediated latent TGFβ activation (phospho-Smad2/3); type: cell-based; settings: with thrombin, 2 hours
Experimental: FIG. 5. ROCK inhibitor (Example 228) blocked integrin αvβ6 mediated latent TGFβ activation. Integrin αvβ6 positive cell line Detroit 562 cells were plated and treated with compounds in combination with parl ligand thrombin for 2 hours, lysed and activation of TGFβ signaling was detected by phosphorylation of transcription factors Smad2/3. Integrin αvβ6 mediated latent TGFβ activation requires ROCK activity (Jenkins et al., 2006). Activation of the latent TGF3 complex is a key step in regulating the biological availability of this molecule and its subsequent activities. Under tissue injury, extracellular protease cleavage of cell membrane receptor protease-activated receptor 1 (parl) leads to activation of Rho/ROCK, which in turn activates latent ECM associated TGFβ through cell membrane integrin αvβ6. […] Integrin αvβ6 positive cell line Detroit 562 cells were plated and treated with compounds in combination with parl ligand thrombin for 2 hours, lysed and activation of TGFβ signaling was detected by phosphorylation of transcription factors Smad2/3.

[6] = test system: CCD18lu human lung fibroblasts; assay: F-actin stress fiber formation (phalloidin staining); type: cell-based
[7] = test system: MKL1 in CCD18Lu human lung fibroblasts; assay: MKL1 nuclear translocation, immunofluorescent staining; type: cell-based; settings: 3 μM, 3 hours
Experimental: FIG. 3. Immunofluorescent staining of MKL1 in human lung fibroblasts. CCD18Lu human lung fibroblasts were treated with compounds for 3 hours and fixed and stained for MKL1, F-actin and DAPI. […] The Example 228 compound abolished nuclear accumulation of MKL1 in cultured human lung fibroblasts. CCD18Lu human lung fibroblasts were treated with the ROCK inhibitor (3 μM) for 3 hours and fixed and stained for MKL1, F-actin and DAPI.

[8] = test system: ppMLC in SVEC4-10 cells; assay: Thrombin induced MLC phosphorylation western blot; type: cell-based, Mouse; settings: SVEC4-10 endothelial cells, increasing doses of thrombin, 10 min
Experimental: FIG. 7b. […] Mouse endothelial cell line SVEC4-10 cells were cultured and treated with increasing doses of thrombin in combination with ROCKi for 10 min. ppMLC signal was detected by western blot. […] Mouse endothelial cell line SVEC4-10 was cultured and treated with increasing doses of thrombin in combination with ROCK inhibitor for 10 min. ppMLC signal was detected by western blot. […] Collectively, the above data strongly supports the ROCK inhibitors of the invention as an effective intervention in fibrotic diseases.

[9] = 9 points 2-fold serial dilution
[10] = read-out: ROCK2 % inh. @ [conc]
[11] = NIH3T3, 24 h, NIH3T3 cells, plus TGFβ1 for 24 hr
[12] = read-out: ROCK1 % inh. @ [conc]
[13] = NIH3T3, 24 h, with TGFβ1, 24 hr

Chain of Recombinant ROCK2 (amino acids 1-552) (O75116 1-552): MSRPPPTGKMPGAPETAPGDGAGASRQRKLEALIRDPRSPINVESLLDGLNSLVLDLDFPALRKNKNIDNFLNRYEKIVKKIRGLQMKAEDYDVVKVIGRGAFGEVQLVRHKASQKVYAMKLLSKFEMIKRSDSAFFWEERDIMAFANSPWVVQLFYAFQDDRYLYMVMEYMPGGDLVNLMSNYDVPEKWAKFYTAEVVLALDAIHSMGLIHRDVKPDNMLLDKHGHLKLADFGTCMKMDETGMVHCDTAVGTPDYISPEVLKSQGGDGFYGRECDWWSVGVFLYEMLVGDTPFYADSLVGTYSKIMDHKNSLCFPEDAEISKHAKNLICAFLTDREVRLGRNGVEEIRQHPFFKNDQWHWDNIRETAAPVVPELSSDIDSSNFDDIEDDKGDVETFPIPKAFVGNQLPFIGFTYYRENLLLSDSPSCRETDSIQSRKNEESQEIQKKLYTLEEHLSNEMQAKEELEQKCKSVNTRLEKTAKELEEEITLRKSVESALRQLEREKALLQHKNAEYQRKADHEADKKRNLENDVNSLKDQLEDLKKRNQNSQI
Chain of Recombinant ROCK1 (amino acids 1-535) (Q13464 1-535): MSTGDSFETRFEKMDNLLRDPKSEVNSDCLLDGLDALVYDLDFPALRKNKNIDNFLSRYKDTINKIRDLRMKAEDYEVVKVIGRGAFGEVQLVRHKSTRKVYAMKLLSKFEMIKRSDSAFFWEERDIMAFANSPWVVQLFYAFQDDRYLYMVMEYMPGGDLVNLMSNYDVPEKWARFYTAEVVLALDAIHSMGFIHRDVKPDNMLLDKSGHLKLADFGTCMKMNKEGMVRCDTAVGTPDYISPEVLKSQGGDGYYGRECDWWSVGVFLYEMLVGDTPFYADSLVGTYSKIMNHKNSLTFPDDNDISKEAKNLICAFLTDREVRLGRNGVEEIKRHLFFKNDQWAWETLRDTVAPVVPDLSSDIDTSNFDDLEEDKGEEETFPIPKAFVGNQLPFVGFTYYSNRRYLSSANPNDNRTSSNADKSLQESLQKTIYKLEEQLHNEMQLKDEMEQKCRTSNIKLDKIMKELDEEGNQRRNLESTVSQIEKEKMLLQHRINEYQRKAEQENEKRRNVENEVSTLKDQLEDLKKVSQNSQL

SMILES	IC50 [1, 9]	inhibition at 1 µM [2]	IC50 ([2]; ppMlc (T18/S19))	IC50 [4, 11]	IC50 [3, 9]	inhibition at 0.5 µM [1, 12]	IC50 [2]	IC50 [3]	inhibition at 0.5 µM [3, 10]	IC50 [4, 13]	other results
CC1CNCCN(c2ncc(F)c(Nc3ccc4[nH]ncc4c3)n2)C1 (stereo not shown) [Example 218, N-(5-fluoro-2-(6-methyl-1,4-diazepan-1-yl)pyrimidin-4-yl)-1H-indazol-5-amine]	65 nM	53%	430 nM	6110 nM	–	–	–	–	–	–	inhibition at 1 µM [3, 10]: 99.5%
Cc1cc(Nc2ccc3[nH]ncc3c2)nc(N2C3CNCC2C3)n1 [Example 213, N-(2-(3,6-diazabicyclo[3.1.1]heptan-6-yl)-6-methylpyrimidin-4-yl)-1H-indazol-5-amine]	0.2 nM	34%	60 nM	230 nM	1.6 nM	–	–	–	–	–	inhibition at 1 µM [3, 10]: 101%
Fc1cnc(N2CCNCC2)nc1Nc1ccc2[nH]ncc2c1 [Example 214, N-(5-fluoro-2-(piperazin-1-yl)pyrimidin-4-yl)-1H-indazol-5-amine]	38 nM	–	323 nM	1250 nM	26 nM	–	–	–	–	–	inhibition at 10 µM [2]: 63%
c1cc(Nc2ccc3[nH]ncc3c2)nc(N2CC3CC2CN3)n1 (stereo not shown) [Example 201, N-(2-(2,5-diazabicyclo[2.2.1]heptan-2-yl)pyrimidin-4-yl)-1H-indazol-5-amine]	37 nM	50.1%	168 nM	1640 nM	27 nM	–	–	–	–	–	–
Cc1cc(Nc2ccc3[nH]ncc3c2)nc(N2C3CCC2CNC3)n1 [Example 209, N-(2-(3,8-diazabicyclo[3.2.1]octan-8-yl)-6-methylpyrimidin-4-yl)-1H-indazol-5-amine]	5 nM	53.2%	47 nM	332 nM	34 nM	–	–	–	–	–	–
CN(C)c1cc(Nc2ccc3[nH]ncc3c2)nc(N2C3CCC2CNC3)n1 [Example 336, 2-(3,8-diazabicyclo[3.2.1]octan-8-yl)-N^4-(1H-indazol-5-yl)-N^6,N^6-dimethylpyrimidine-4,6-diamine]	–	–	–	–	–	99%	25 nM	3.6 nM	103%	116 nM	–
CC(=O)N1Cc2nc(N3C4CCC3CNC4)nc(Nc3ccc4[nH]ncc4c3)c2C1 [Example 314, 1-(4-((1H-indazol-5-yl)amino)-2-(3,8-diazabicyclo[3.2.1]octan-8-yl)-5,7-dihydro-6H-pyrrolo[3,4-d]pyrimidin-6-yl)ethan-1-one]	–	–	–	–	–	81%	> 5000 nM	80 nM	94%	> 5000 nM	–
c1cc(-c2cn[nH]c2)ccc1Nc1nc(N2C3CNCC2C3)nc2c1COCC2 [Example 317, N-(4-(1H-pyrazol-4-yl)phenyl)-2-(3,6-diazabicyclo[3.1.1]heptan-6-yl)-7,8-dihydro-5H-pyrano[4,3-d]pyrimidin-4-amine]	–	–	–	–	–	70%	> 10000 nM	38 nM	75%	> 10000 nM	–
Clc1cnc(N2CC3CC2CN3)nc1Nc1ccc2[nH]ncc2c1 (stereo not shown) [Example 194, N-(2-(2,5-diazabicyclo[2.2.1]heptan-2-yl)-5-chloropyrimidin-4-yl)-1H-indazol-5-amine]	41 nM	31.6%	176 nM	1540 nM	23 nM	–	–	–	–	–	inhibition at 1 µM [3, 10]: 98.3%
COc1cnc(N2C3CCC2CNC3)nc1Nc1ccc2[nH]ncc2c1 [Example 198, N-(2-(3,8-diazabicyclo[3.2.1]octan-8-yl)-5-methoxypyrimidin-4-yl)-1H-indazol-5-amine]	–	38%	–	–	–	–	57 nM	5 nM	–	413 nM	IC50 [1]: 4.1 nM; inhibition at 1 µM [3, 10]: 104%
Fc1cnc(N2CC3CC2CN3)nc1Nc1ccc2[nH]ncc2c1 (stereo not shown) [Example 219, N-(2-(2,5-diazabicyclo[2.2.1]heptan-2-yl)-5-fluoropyrimidin-4-yl)-1H-indazol-5-amine]	18 nM	46.6%	77 nM	613 nM	41 nM	–	–	–	–	–	–
c1cc(Nc2ccc3[nH]ncc3c2)nc(N2C3CCC2CNC3)n1 [Example 228, N-(2-(3,8-diazabicyclo[3.2.1]octan-8-yl)pyrimidin-4-yl)-1H-indazol-5-amine]	4 nM	–	69 nM	151 nM	3 nM	–	–	–	–	–	integrin αvβ6 mediated latent TGFβ activation (phosphorylation of Smad2/3) [5]: blocked; inhibition at 3 µM ([1]; 3 μM compound, read-out: ROCK1 % inh. @ [conc]): 98.5%; inhibition at 10 µM [2]: 83%; inhibition at 3 µM ([3]; 3 μM compound, read-out: ROCK2 % inh. @ [conc]): 101%; F-actin stress fiber formation [6]: phenotypically copied gene silencing; also recorded: inhibited; nuclear accumulation of MKL1 [7]: abolished; stress fiber formation ([7]; F-actin staining): efficiently cleared; thrombin induced phosphorylation of MLC [8]: potently inhibited
Fc1cnc(N2CCCNCC2)nc1Nc1ccc2[nH]ncc2c1 [Example 215, N-(2-(1,4-diazepan-1-yl)-5-fluoropyrimidin-4-yl)-1H-indazol-5-amine]	40 nM	–	201 nM	1220 nM	37 nM	–	–	–	–	–	inhibition at 10 µM [2]: 68.5%; IC50 ([4]; NIH3T3 cells, plus TGFβ1 for 24 hr): 1780 nM
Cc1nc(N2C3CCC2CNC3)nc(Nc2ccc3[nH]ncc3c2)c1F [Example 302, N-(2-(3,8-diazabicyclo[3.2.1]octan-8-yl)-5-fluoro-6-methylpyrimidin-4-yl)-1H-indazol-5-amine]	–	–	–	–	–	99%	35 nM	2.2 nM	98%	229 nM	–
Cc1nc(N2C3CCC2CNC3)nc(Nc2ccc3[nH]ncc3c2)c1C [Example 29, N-(2-(3,8-diazabicyclo[3.2.1]octan-8-yl)-5,6-dimethylpyrimidin-4-yl)-1H-indazol-5-amine]	–	39.1%	–	–	–	–	147 nM	–	–	1090 nM	IC50 [1]: 42 nM; inhibition at 1 µM [3, 10]: 102%
Fc1cnc(N2C3CNCC2C3)nc1Nc1ccc2[nH]ncc2c1 [Example 220, N-(2-(3,6-diazabicyclo[3.1.1]heptan-6-yl)-5-fluoropyrimidin-4-yl)-1H-indazol-5-amine]	3.1 nM	45.1%	74 nM	167 nM	5.9 nM	–	–	–	–	–	–
COc1nc(N2C3CCC2CNC3)nc(Nc2ccc3[nH]ncc3c2)c1Cl [Example 321, N-(2-(3,8-diazabicyclo[3.2.1]octan-8-yl)-5-chloro-6-methoxypyrimidin-4-yl)-1H-indazol-5-amine]	–	–	–	–	–	98%	74 nM	8 nM	100%	114 nM	–
c1cc(-c2cn[nH]c2)ccc1Nc1nc(N2C3CNCC2C3)nc2c1COC2 [Example 316, N-(4-(1H-pyrazol-4-yl)phenyl)-2-(3,6-diazabicyclo[3.1.1]heptan-6-yl)-5,7-dihydrofuro[3,4-d]pyrimidin-4-amine]	–	–	–	–	–	90%	2420 nM	27 nM	85%	> 10000 nM	–
CC1CNCCN(c2nccc(Nc3ccc4[nH]ncc4c3)n2)C1 (stereo not shown) [Example 237, N-(2-(6-methyl-1,4-diazepan-1-yl)pyrimidin-4-yl)-1H-indazol-5-amine]	63 nM	–	423 nM	2350 nM	104 nM	–	–	–	–	–	inhibition at 10 µM [2]: 68.2%
